Data: ChEMBL document CHEMBL5550219, “Distinct Amino Acid-Based PROTACs Target Oncogenic Kinases for Degradation in Non-Small Cell Lung Cancer (NSCLC)” (J Med Chem, 2024)
Activity calls are given as the source filed them. No cut-off for these calls is given here.

Experiments:
[1] = tested on: UBR/Epidermal growth factor receptor (Homo sapiens), P00533+Q5T4S7+Q8IWV7+Q8IWV8 [L858R,T790M]; assay: PROTAC (AATac) activity at UBR1/2/4/EGFR L858R/T790M mutant in human NCI-H1975 cells assessed as protein degradation at 20 uM incubated for 48 to 72 hrs by immunoblot analysis relative to control; assay type: cell-based; conditions: time 48-72 hrs
NCI-H1299 = assay: Effect on wild-type EGFR expression in human NCI-H1299 cells upto 20 uM incubated for 72 hrs by immunoblot analysis; assay type: functional, cell-based
[2] = target: UBR/ALK tyrosine kinase receptor/Echinoderm microtubule-associated protein-like 4; assay: PROTAC (AATac) activity at UBR1/2/4/EML4-ALK in human NCI-H3122 cells assessed as protein degradation incubated for 48 to 72 hrs by immunoblot analysis; assay type: cell-based
[3] = tested on: UBR/Epidermal growth factor receptor (Homo sapiens), P00533+Q5T4S7+Q8IWV7+Q8IWV8 [L858R,T790M]; assay: PROTAC (AATac) activity at UBR1/2/4/EGFR L858R/T790M mutant in human NCI-H1975 cells assessed as protein degradation upto 20 uM incubated for 72 hrs by immunoblot analysis; assay type: cell-based
NCI-H3122 [4] = assay: Inhibition of cell viability in human NCI-H3122 cells incubated for 48 to 72 hrs by CCK8 assay
[5] = target: T1, UBR/ALK tyrosine kinase receptor/Echinoderm microtubule-associated protein-like 4 (Homo sapiens) (UniProt Q9UM73+Q9HC35+Q5T4S7+Q8IWV7+Q8IWV8); assay: PROTAC (AATac) activity at UBR1/2/4/EML4-ALK in human NCI-H3122 cells assessed as protein degradation upto 20 uM incubated for 72 hrs by immunoblot analysis; assay type: cell-based
[6] = tested on: UBR/Epidermal growth factor receptor (Homo sapiens), P00533+Q5T4S7+Q8IWV7+Q8IWV8 [L858R,T790M]; assay: PROTAC (AATac) activity at UBR1/2/4/EGFR L858R/T790M mutant in human NCI-H1975 cells assessed as protein degradation at 20 uM incubated for 48 hrs by immunoblot analysis; assay type: cell-based
[7] = target: T1, UBR/ALK tyrosine kinase receptor/Echinoderm microtubule-associated protein-like 4 (Homo sapiens); assay: PROTAC (AATac) activity at UBR1/2/4/EML4-ALK in human NCI-H3122 cells assessed as protein degradation at 10 uM incubated for 48 to 72 hrs by immunoblot analysis relative to control; assay type: cell-based; conditions: time 48-72 hrs
NCI-H1975 = assay: Inhibition of cell viability in human NCI-H1975 cells incubated for 48 to 72 hrs by CCK8 assay
PC-9 = assay: Effect on EGFR del19 mutant expression in human PC-9 cells upto 20 uM incubated for 72 hrs by immunoblot analysis; assay type: functional, cell-based
[8] = target: T1, UBR/ALK tyrosine kinase receptor/Echinoderm microtubule-associated protein-like 4 (Homo sapiens); assay: PROTAC (AATac) activity at UBR1/2/4/EML4-ALK in human NCI-H3122 cells assessed as protein degradation at 10 uM incubated for approximately 3 hrs by immunoblot analysis; assay type: cell-based
[9] = target: UBR/Epidermal growth factor receptor (Homo sapiens, UniProt P00533+Q5T4S7+Q8IWV7+Q8IWV8, T790M/L858R); assay: PROTAC (AATac) activity at UBR1/2/4/EGFR L858R/T790M mutant in human NCI-H1975 cells assessed as protein degradation incubated for 48 to 72 hrs by immunoblot analysis; assay type: cell-based
A549 = assay: Effect on wild-type EGFR expression in human A549 cells upto 20 uM incubated for 72 hrs by immunoblot analysis; assay type: functional, cell-based
ZYG11B/ZER1/EML4-ALK [10] = target: T2, ZYG11B/ZER1/EML4-ALK (Homo sapiens, UniProt Q9UM73+Q9HC35+Q9C0D3+Q7Z7L7); assay: PROTAC (AATac) activity at ZYG11B/ZER1/EML4-ALK in human NCI-H3122 cells harboring shZYG11B assessed as protein degradation incubated for 24 hrs by immunoblot analysis; assay type: cell-based
ZYG11B/ZER1/EML4-ALK [11] = target: T2, ZYG11B/ZER1/EML4-ALK; assay: PROTAC (AATac) activity at ZYG11B/ZER1/EML4-ALK in human NCI-H3122 cells assessed as protein degradation upto 20 uM incubated for 72 hrs by immunoblot analysis; assay type: cell-based
[12] = tested on: Protein zyg-11 homolog B/Protein zer-1 homolog/Epidermal growth factor receptor (Homo sapiens), P00533+Q9C0D3+Q7Z7L7 [L858R,T790M]; assay: PROTAC (AATac) activity at ZYG11B/ZER1/EGFR L858R/T790M mutant in human NCI-H1975 cells harboring shZYG11B assessed as protein degradation incubated for 72 hrs by immunoblot analysis; assay type: cell-based
[13] = tested on: Protein zyg-11 homolog B/Protein zer-1 homolog/Epidermal growth factor receptor (Homo sapiens), P00533+Q9C0D3+Q7Z7L7 [L858R,T790M]; assay: PROTAC (AATac) activity at ZYG11B/ZER1/EGFR L858R/T790M mutant in human NCI-H1975 cells assessed as protein degradation at 20 uM incubated for 24 hrs by immunoblot analysis; assay type: cell-based
[14] = tested on: Protein zyg-11 homolog B/Protein zer-1 homolog/Epidermal growth factor receptor (Homo sapiens), P00533+Q9C0D3+Q7Z7L7 [L858R,T790M]; assay: PROTAC (AATac) activity at ZYG11B/ZER1/EGFR L858R/T790M mutant in human NCI-H1975 cells harboring shZER1 assessed as protein degradation incubated for 72 hrs by immunoblot analysis; assay type: cell-based
ZYG11B/ZER1/EML4-ALK [15] = target: T2, ZYG11B/ZER1/EML4-ALK; assay: PROTAC (AATac) activity at ZYG11B/ZER1/EML4-ALK in human NCI-H3122 cells assessed as protein degradation incubated for 48 to 72 hrs by immunoblot analysis; assay type: cell-based
[16] = target: Protein zyg-11 homolog B/Protein zer-1 homolog/Epidermal growth factor receptor (Homo sapiens, UniProt P00533+Q9C0D3+Q7Z7L7, T790M/L858R); assay: PROTAC (AATac) activity at ZYG11B/ZER1/EGFR L858R/T790M mutant in human NCI-H1975 cells assessed as protein degradation incubated for 48 to 72 hrs by immunoblot analysis; assay type: cell-based
ZYG11B/ZER1/EML4-ALK [17] = target: T2, ZYG11B/ZER1/EML4-ALK; assay: PROTAC (AATac) activity at ZYG11B/ZER1/EML4-ALK in human NCI-H3122 cells harboring shZER1 assessed as protein degradation incubated for 24 hrs by immunoblot analysis; assay type: cell-based
ZYG11B/ZER1/EML4-ALK [18] = target: T2, ZYG11B/ZER1/EML4-ALK; assay: PROTAC (AATac) activity at ZYG11B/ZER1/EML4-ALK in human NCI-H3122 cells assessed as protein degradation at 10 uM incubated for 48 to 72 hrs by immunoblot analysis relative to control; assay type: cell-based; conditions: time 48-72 hrs
ZYG11B/ZER1/EML4-ALK [19] = target: T2, ZYG11B/ZER1/EML4-ALK; assay: PROTAC (AATac) activity at ZYG11B/ZER1/EML4-ALK in human NCI-H3122 cells assessed as protein degradation at 10 uM incubated for […] by immunoblot analysis; assay type: cell-based
[20] = tested on: Protein zyg-11 homolog B/Protein zer-1 homolog/Epidermal growth factor receptor (Homo sapiens), P00533+Q9C0D3+Q7Z7L7 [L858R,T790M]; assay: PROTAC (AATac) activity at ZYG11B/ZER1/EGFR L858R/T790M mutant in human NCI-H1975 cells assessed as protein degradation at 20 uM incubated for 48 to 72 hrs by immunoblot analysis relative to control; assay type: cell-based; conditions: time 48-72 hrs
[21] = tested on: Protein zyg-11 homolog B/Protein zer-1 homolog/Epidermal growth factor receptor (Homo sapiens), P00533+Q9C0D3+Q7Z7L7 [L858R,T790M]; assay: PROTAC (AATac) activity at ZYG11B/ZER1/EGFR L858R/T790M mutant in human NCI-H1975 cells assessed as protein degradation upto 20 uM incubated for 72 hrs by immunoblot analysis; assay type: cell-based
NCI-H3122 [22] = assay: Antitumor activity against human NCI-H3122 cells xenografted in nude mouse assessed as reduction in ALK level at 10 mg/kg, ip measured after 24 hrs by immunoblot analysis; assay type: functional, organism-based
NCI-H3122 [23] = assay: Effect on EML4-ALK expression in human NCI-H3122 cells upto 20 uM incubated for 72 hrs by immunoblot analysis; assay type: functional, cell-based
[24] = tested on: Epidermal growth factor receptor (Homo sapiens), P00533 [L858R,T790M]; assay: Induction of EGFR L858R/T790M mutant degradation in human NCI-H1975 cells harboring sgGID4 at 1 to 20 uM incubated for 24 hrs by immunoblot analysis; assay type: cell-based; conditions: dose 1-20 µM
[25] = tested on: Epidermal growth factor receptor (Homo sapiens), P00533 [L858R,T790M]; assay: Inhibition of EGFR L858R/T790M mutant phosphorylation in human NCI-H1975 cells harboring sgGID4 at 1 to 20 uM incubated for 24 hrs by immunoblot analysis; assay type: cell-based; conditions: dose 1-20 µM
NCI-H3122 [26] = assay: Inhibition of EML4-ALK phosphorylation in human NCI-H3122 cells at 2.5 uM incubated for 48 hrs followed by compound removal and incubation in drug-free medium for 12 to 72 hrs by immunoblot analysis; assay type: cell-based
[27] = tested on: Glucose-induced degradation protein 4 homolog/Epidermal growth factor receptor (Homo sapiens), P00533+Q8IVV7 [L858R,T790M]; assay: Inhibition of EGFR L858R/T790M mutant phosphorylation in human NCI-H1975 cells at 20 uM incubated for 72 hrs followed by compound removal and incubation in drug-free medium for 12 to 72 hrs by immunoblot analysis; assay type: cell-based

COc1cc(N2CCN(C(=O)CCOCCOCCOCCNC(=O)[C@@H](N)CCCCN)CC2)ccc1Nc1ncc(Cl)c(Nc2ccccc2P(C)(C)=O)n1
Activity [1]: 52% | Activity (NCI-H1299): inactive | DC50 [2]: 1.32 µM | Activity [3]: Active | IC50 (NCI-H3122 [4]): 5.3 µM | Activity [5]: Active | Activity [6]: Active | Emax [7]: 91% | IC50 (NCI-H1975): 18.6 µM | Activity (PC-9): inactive | Activity [8]: Active | DC50 [9]: 19.7 µM | Activity (A549): inactive

COc1cc(N2CCN(C(=O)CCOCCOCCOCCNC(=O)CN)CC2)ccc1Nc1ncc(Cl)c(Nc2ccccc2P(C)(C)=O)n1
Activity (ZYG11B/ZER1/EML4-ALK [10]): inactive | Activity (NCI-H1299): inactive | Activity (ZYG11B/ZER1/EML4-ALK [11]): Active | Activity [12]: inactive | Activity [13]: Active | Activity [14]: inactive | DC50 (ZYG11B/ZER1/EML4-ALK [15]): 0.5 µM | DC50 [16]: 20.1 µM | IC50 (NCI-H3122 [4]): 0.84 µM | Activity (ZYG11B/ZER1/EML4-ALK [17]): inactive | IC50 (NCI-H1975): 20.7 µM | Activity (PC-9): inactive | Emax (ZYG11B/ZER1/EML4-ALK [18]): 98% | Activity (ZYG11B/ZER1/EML4-ALK [19]): Active | Activity [20]: 43% | Activity [21]: Active | Activity (NCI-H3122 [22]): Active | Activity (A549): inactive

COc1cc(N2CCN(C(=O)CCOCCOCCOCCNC(=O)[C@@H](N)CCCN)CC2)ccc1Nc1ncc(Cl)c(Nc2ccccc2P(C)(C)=O)n1
Activity (NCI-H3122 [23]): inactive

COc1cc(N2CCNCC2)ccc1Nc1ncc(Cl)c(Nc2ccccc2P(C)(C)=O)n1
Activity (NCI-H3122 [23]): inactive | Activity [24]: inactive | IC50 (NCI-H3122 [4]): 0.3 µM | Activity [25]: inactive | IC50 (NCI-H1975): 0.88 µM | inhibition (NCI-H3122 [26]): inactive | inhibition [27]: inactive
